# Measurements taken from ChEMBL document CHEMBL5154941, “Structural Modifications of Nimodipine Lead to Novel PDE1 Inhibitors with Anti-pulmonary Fibrosis Effects” (J Med Chem, 2022).
# How the values were obtained:
# [1] = target: Dual specificity calcium/calmodulin-dependent 3',5'-cyclic nucleotide phosphodiesterase 1C (Homo sapiens, UniProt Q14123); assay: Inhibition of PDE1C (147 to 531 residues) (unknown origin) expressed in Escherichia coli BL21 using [3H]-cGMP as substrate measured for 15 mins by liquid scintillation counter method
# Chain of Dual specificity calcium/calmodulin-dependent 3',5'-cyclic nucleotide phosphodiesterase 1C (Q14123 whole entry, the tested form may be a part): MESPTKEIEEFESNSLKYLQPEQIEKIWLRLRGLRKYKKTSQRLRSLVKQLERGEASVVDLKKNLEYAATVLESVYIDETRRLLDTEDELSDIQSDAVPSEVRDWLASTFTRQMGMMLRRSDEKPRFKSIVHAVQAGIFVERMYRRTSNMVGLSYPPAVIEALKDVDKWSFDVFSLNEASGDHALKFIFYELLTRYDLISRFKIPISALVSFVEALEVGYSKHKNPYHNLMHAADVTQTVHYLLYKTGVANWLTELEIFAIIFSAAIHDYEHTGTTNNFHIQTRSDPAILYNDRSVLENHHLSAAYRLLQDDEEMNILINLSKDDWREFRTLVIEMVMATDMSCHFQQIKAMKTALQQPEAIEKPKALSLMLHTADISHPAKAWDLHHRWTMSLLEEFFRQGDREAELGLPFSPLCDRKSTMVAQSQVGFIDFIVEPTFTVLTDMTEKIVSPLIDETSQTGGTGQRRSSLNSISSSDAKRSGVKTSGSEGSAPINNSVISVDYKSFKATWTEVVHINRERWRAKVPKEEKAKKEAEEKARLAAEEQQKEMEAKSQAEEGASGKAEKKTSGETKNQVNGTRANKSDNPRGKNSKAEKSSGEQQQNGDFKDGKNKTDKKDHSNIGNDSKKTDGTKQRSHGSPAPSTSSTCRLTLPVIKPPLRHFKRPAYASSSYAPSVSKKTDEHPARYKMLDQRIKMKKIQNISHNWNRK
# Homo sapiens = species: Homo sapiens; assay: Selectivity ratio of IC50 for PDE4D (unknown origin) expressed in Escherichia coli BL21 to IC50 for PDE1C (147 to 531 residues) (unknown origin) expressed in Escherichia coli BL21
Structure (SMILES),IC50 [1] [nM],Ratio IC50 (Homo sapiens)
COCCOC(=O)C1=C(C)NC(C)=C(C(=O)OC(C)C)C1c1cccc([N+](=O)[O-])c1 (stereo not drawn) [NIMODIPINE],1240,5.8
COC(=O)C1=C(C)NC(C)=C(C(=O)OC)C1c1ccccc1[N+](=O)[O-] [NIFEDIPINE],> 10000,–
